For 19 molecules, GI50 and TGI results are on record in PubChem BioAssay (NCI).

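Interpolation was linear, between the two tested concentrations surrounding the appropriate level; five concentrations were tested over 48 hours in 96-well plates. Abbreviation: GI50, concentration required for 50% inhibition of growth. TGI marks complete inhibition of growth.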 Bounds are passed on as bounds.

Common to all, as to experiment: NCI-60 cell line screen, 48 h
Assay [1] deals with MALME-3M melanoma.
In assay [2] the test system is MDA-MB-435.
Assay [3] deals with A498 renal.
The subject of assay [4] is SN12C renal.
The subject of assay [5] is SK-MEL-28 melanoma.
Assay [6] relates to CAKI-1 renal.
Assay [7] concerns SK-MEL-2 melanoma.
Assay [8] concerns HOP-62 NSCLC.
In assay [9] the test system is OVCAR-4 ovarian.
Assay [10] deals with SNB-19 CNS.

For `N#CN1CC[C@H](C(=O)Nc2cc3cc(C(N)=O)ccc3cn2)C1`, the GI50 in assay [1] was 0.0239 µM; in assay [2] it was 0.045 µM; in assay [3], 0.0765 µM; in assay [4] it was 0.117 µM; in assay [5], 0.117 µM; in assay [6], 0.487 µM. The GI50 in [7] was 0.0266 µM; in assay [8] it was 0.172 µM; in assay [9] it was 0.041 µM; in [10], 0.144 µM. In addition, the TGI in assay [1] is 0.152 µM; in assay [2] it was 13.2 µM; in [3], 0.31 µM; in assay [4], 46.7 µM; in assay [5] it was 9.41 µM; in assay [6], over 100 µM. Further, the TGI in assay [7] is 0.107 µM; in assay [8], 3.5 µM; in assay [9] it was 1.6 µM; in assay [10], over 100 µM.

As to `Cc1cc(Cl)ccc1Nc1nc(C(F)(F)F)ccc1C(=O)N/N=C/c1ccccc1Cl`, the GI50 in assay [1] is 1.54 µM; in assay [2], 2.29 µM; in assay [4], 1.45 µM; in assay [5], 1.38 µM; in assay [6], 2.82 µM; in assay [7], 3.22 µM. Moreover, the values for the GI50 in [8], in [9] and in assay [10] were 0.836 µM, 0.422 µM and 1.72 µM, respectively. For the same molecule, the TGI was 6.18 µM in assay [1]; 20.9 µM in assay [2]; 3.14 µM in [3]; over 54.3 µM in [4]; 6.88 µM in [5]; 7.72 µM in assay [6]. Besides, the TGI is 18.8 µM in assay [7], 2.72 µM in assay [8], over 100 µM in [9] and 14.5 µM in assay [10].

Turning to `C#COc1cccc(Nc2ncnc3cc(NC(=O)[C@H](C)Cl)ccc23)c1`, the GI50 in assay [1] is 4.07 µM; in assay [2] it was 1.4 µM; in assay [3], 1.73 µM; in [4] it was 3.69 µM; in assay [5], 4.71 µM; in assay [6] it was 2.95 µM. Also, the GI50 in assay [8] was 6.35 µM; in assay [10] it was 4.72 µM. Also, the TGI in assay [1] is over 62.5 µM; in assay [2], 4.3 µM; in assay [3] it was 34.5 µM; in assay [4], over 62.5 µM; in [5], over 62.5 µM; in assay [6], over 62.5 µM. In addition, the TGI in assay [8] and in assay [10] was over 62.5 µM in each case.

For `C=C(C)C(=O)O[C@@H]1C/C(C)=C\[C@H](OC(C)=O)C[C@](C)(O)/C=C2/OC(=O)C(COC(C)=O)=C21`, the TGI in assay [1] is 0.979 µM; in [2], 2.8 µM; in assay [3] it was over 20.8 µM; in [4], 2.85 µM; in assay [5], 0.762 µM; in assay [6] it was 0.99 µM. Besides, the results for the TGI in assay [7], in [8] and in assay [10] were 14.1 µM, over 100 µM and 41.8 µM, respectively.

As for `O=C(CC(=O)c1cccc(Cl)c1)c1cccc(Cl)c1`, the GI50 in assay [1] was 2.75 µM; in assay [2], 3.18 µM; in assay [3] it was 5.07 µM; in assay [4], 2.38 µM; in [5] it was 2.7 µM; in assay [6], 1.61 µM. The GI50 in assay [7] is 4.75 µM; in assay [8], 2.59 µM; in [9], 1.9 µM; in assay [10], 6.68 µM. In addition, the TGI in assay [1] was over 100 µM; in [2], over 100 µM; in assay [3], over 100 µM; in assay [4], over 100 µM; in [5] it was over 100 µM; in assay [6], 6.65 µM. Besides, the TGI in assay [7], in assay [8], in assay [9] and in assay [10] was over 100 µM in each case.

As to `O=S(=O)(Nc1ccc(F)c(Cl)c1)c1ccc(-c2cnc(C3CC3)o2)cc1`, the GI50 in assay [1] is 0.589 µM; in assay [2], 0.0313 µM; in [3], 0.156 µM; in assay [4], 0.663 µM; in [5], 1.73 µM; in assay [6], 0.179 µM. Besides, the GI50 was 0.657 µM in [7], 0.453 µM in [8], 1.2 µM in [9] and 0.389 µM in assay [10]. For the same molecule, the TGI was determined as 16.1 µM in assay [1]; 0.187 µM in assay [2]; 0.823 µM in assay [3]; 10.8 µM in [4]; 14.5 µM in assay [5]; 11.7 µM in assay [6]. The TGI in assay [7] came out at 14 µM; in [8], 14.4 µM; in assay [9], 11.7 µM; in [10], 13.7 µM.

Turning to `COc1ccc(C2C=C(c3ccc(Cl)cc3)N=C3SC=C(C)N32)c(Br)c1` (configuration not stated), the GI50 was 8.31 µM in assay [1]; 3.02 µM in assay [2]; 4.18 µM in [3]; 3.23 µM in assay [4]; 5.11 µM in assay [5]; 2.98 µM in [6]. Also, the GI50 in assay [7] was 4.79 µM; in assay [8], 3.96 µM; in assay [9], 3.89 µM; in assay [10], 5.25 µM. The TGI stood at 22.8 µM in assay [1]; 14.9 µM in [2]; 16.2 µM in assay [3]; 15.1 µM in [4]; 17.4 µM in assay [5]; 12.4 µM in [6]. The TGI is 18.1 µM in [7], 13.4 µM in [8], 34.6 µM in assay [9] and 21.7 µM in [10].

Turning to `COc1ccc(/C=C\c2cc(OC)c(OC)c(OC)c2)cc1OCC(=O)Nc1ccc2nc(C)sc2c1`, the GI50 is 2.84 µM in assay [1]; 2.13 µM in [2]; 4.18 µM in assay [3]; 3.53 µM in assay [4]; 3.22 µM in assay [5]; 2.19 µM in assay [6]. Also, the GI50 in assay [7] is 3.15 µM; in [8] it was 3.09 µM; in assay [9], 2.64 µM; in assay [10], 3.89 µM. Also, the TGI is 8.29 µM in [1]; 6.18 µM in [2]; over 100 µM in assay [3]; over 100 µM in assay [4]; 13.1 µM in assay [5]; 5.85 µM in assay [6]. The TGI is 19.1 µM in assay [7], 8.85 µM in [8], 9.18 µM in assay [9] and over 100 µM in assay [10].

Regarding `COc1cc2c(=O)n(CCN(C)C)c3c4cc5c(cc4ccc3c2cc1OC)OCO5`, the GI50 is 0.241 µM in assay [1]; 0.329 µM in assay [2]; 0.0417 µM in assay [3]; 0.226 µM in [4]; 0.747 µM in assay [5]; 0.876 µM in assay [7]. For the same molecule, the GI50 in assay [8] was 0.193 µM; in [9] it was 0.445 µM; in assay [10], 0.198 µM. Moreover, the TGI in assay [1] is 0.967 µM; in assay [2], 1.29 µM; in assay [3], 0.603 µM; in [4], over 50 µM; in [5], 3.3 µM; in [7] it was 1.94 µM. Further, the values for the TGI in assay [8], in assay [9] and in assay [10] were 1.88 µM, 5.53 µM and 8.41 µM, respectively.

For `O=C1c2ccccc2C(=O)c2c(NCC3CO3)ccc(NCC3CO3)c21` (configuration not stated), the TGI in assay [1] was 18.3 µM; in assay [2], 2.58 µM; in assay [3] it was over 83.9 µM; in assay [4], 2.06 µM; in assay [5] it was 28.1 µM; in [6], 7.79 µM. In addition, the TGI is 6.96 µM in assay [8], 34 µM in [9] and over 39.3 µM in assay [10].

As for `COc1cc(C2C3=C(COC3=O)N(CCO)c3cc4c(cc32)OCO4)cc(OC)c1O` (configuration not stated), the GI50 in assay [1] was 1.96 µM; in [2], 0.343 µM; in assay [3], 1.16 µM; in [4], over 12.1 µM; in assay [5], over 50 µM; in [6], 5.4 µM. Besides, the GI50 in [8] is 2.35 µM; in [9], 2.99 µM; in assay [10], 2.27 µM. The TGI in assay [1] is over 50 µM; in assay [2] it was 1.53 µM; in assay [3], 3.92 µM; in [4], over 50 µM; in [5], over 50 µM; in [6], over 41 µM. The TGI in assay [8] was over 50 µM; in assay [9], over 50 µM; in assay [10], over 18.8 µM.

With `Clc1ccccc1C(Nc1ncccn1)Nc1ncccn1`, the TGI in assay [2], in assay [3], in [4], in [5], in [6] and in assay [7] was over 100 µM throughout. Further, the TGI in assay [8], in assay [9] and in assay [10] was over 100 µM each time.

Consider `CCOC(=O)/C=C/C(=O)[C@H](CC(C)C)NC(=O)[C@H](Cc1ccccc1)NC(=O)OCc1ccccc1`, for which the GI50 in assay [1] was 3.89 µM; in assay [2] it was 6.58 µM; in assay [5], 3.12 µM; in assay [6], 8.82 µM; in assay [7] it was 13.8 µM; in [8] it was 14.4 µM. The GI50 was 12.9 µM in assay [9] and 12.6 µM in assay [10]. Besides, the TGI in assay [1] amounted to 15.3 µM; in assay [2], 20.1 µM; in assay [5], 12 µM; in [6] it was 21.7 µM; in [7], 27.1 µM; in assay [8] it was 29.6 µM. The TGI in [9] came to 26.6 µM; in assay [10], 28.1 µM.

For `CC(=O)c1cc(C(=O)c2ccc3c(c2)Sc2ccccc2N3)c2c(C)cccn12`, the GI50 in [1] is 13.6 µM; in [2] it was 0.0464 µM; in [3] it was 0.141 µM; in assay [4] it was 0.686 µM; in assay [5], 2.51 µM; in [7], 0.3 µM. For the same molecule, the GI50 in [8] was 0.25 µM; in assay [9], 2.13 µM; in assay [10], 0.246 µM. Moreover, the TGI in [1] is over 100 µM; in assay [2] it was 0.275 µM; in assay [3], 1.9 µM; in assay [4], over 100 µM; in [5], over 100 µM; in [7], over 66.2 µM. The results for the TGI in assay [8], in [9] and in assay [10] were 36.9 µM, over 100 µM and over 100 µM, respectively.

Consider `CC12CCC3c4cc(Br)c(O)c(Br)c4CCC3C1CCC2O` (configuration not stated), for which the TGI is 30.8 µM in assay [1]; 18.7 µM in assay [2]; 36.3 µM in [3]; 42 µM in assay [4]; 34.9 µM in assay [5]; 31.5 µM in [6]. In assay [7], this molecule returned a TGI of 59.4 µM.

In the case of `O=c1cc(-c2ccccc2)oc2cc(OC/C(=N/O)c3ccc(F)cc3)ccc12`, the GI50 in assay [2] is 13.8 µM; in assay [4], 15.5 µM; in [5], 27.1 µM; in assay [6] it was 11.8 µM; in [7], 20.2 µM; in assay [8], over 50 µM. In addition, the GI50 in assay [9] and in [10] was over 50 µM in each case. In addition, the TGI in assay [2] was over 50 µM; in assay [4], over 50 µM; in assay [5] it was over 50 µM; in [6] it was 38.6 µM; in assay [7] it was over 50 µM; in assay [8] it was over 50 µM. The TGI in assay [9] and in assay [10] was over 50 µM each time.

As for `Oc1[nH]c2ccccc2c1N=Nc1c(F)c(F)c(F)c(F)c1F`, the TGI in [2] was over 100 µM; in assay [3], over 100 µM; in assay [4], over 55.7 µM; in assay [5], over 100 µM; in [6] it was over 64.3 µM; in [7], over 100 µM. Besides, the TGI in [8], in [9] and in [10] was over 100 µM each time.

As to `NNC(=O)c1ccc(OCc2nc3ccccc3[nH]2)cc1`, the TGI in assay [1], in assay [2], in assay [3], in assay [4], in [5] and in [6] was over 100 µM in each case. The TGI in assay [7], in assay [9] and in assay [10] was over 100 µM each time.

Turning to `CN(C)c1ccc(C(c2ccc(Cl)cc2)c2ccc(N(C)C)cc2)cc1`, the TGI in assay [1], in [2], in [3], in assay [4], in assay [5] and in [6] was over 100 µM in each case. Moreover, the TGI in [7], in assay [8] and in [10] was over 100 µM in each case.
